Some test systems named below: PC-3 prostate; UACC-62 melanoma; OVCAR-3 ovarian; SNB-75 CNS; MOLT-4 leukemia; M14 melanoma; MDA-MB-231 breast; EKVX NSCLC; CAKI-1 renal; MALME-3M melanoma.
What all share (test): NCI tumour cell line growth inhibition, 48 h

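A five-concentration, 48-hour dose response in 96-well plates underlies each endpoint, interpolated linearly between surrounding concentrations. Abbreviation: GI50, concentration required for 50% inhibition of growth. At the TGI there is no net growth.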

Turning to `Cc1c2cc[nH]c(=O)c2c(C)c2c1[nH]c1cc(OCCN3CCN(C)CC3)ccc12`, the GI50 in the experiment with PC-3 prostate was 1.03 µM; in the experiment on UACC-62 melanoma, 1.13 µM; in the experiment with OVCAR-3 ovarian it was 1.24 µM; with SNB-75 CNS, 1.23 µM; in the experiment on MOLT-4 leukemia, 0.456 µM; in the experiment with M14 melanoma, 1.2 µM. In addition, the GI50 in the experiment with MDA-MB-231 breast was 0.783 µM; in the experiment with EKVX NSCLC it was 1.11 µM; in the experiment on CAKI-1 renal it was 2.17 µM. For the same molecule, the TGI came out at 7.48 µM in the experiment on PC-3 prostate; 2.9 µM in the experiment on UACC-62 melanoma; 7.7 µM in the experiment with OVCAR-3 ovarian; 6.81 µM in the experiment on SNB-75 CNS; 5.51 µM with MOLT-4 leukemia; 2.94 µM in the experiment with M14 melanoma. Further, the TGI is 3.19 µM in the experiment with MDA-MB-231 breast, 10.3 µM in the experiment on EKVX NSCLC and 9.55 µM with CAKI-1 renal.
Regarding `CCSc1nnc2c(-c3ccccc3)n[nH]c2n1`, the TGI in the experiment on PC-3 prostate, in the experiment with UACC-62 melanoma, with OVCAR-3 ovarian, in the experiment on SNB-75 CNS, in the experiment with MOLT-4 leukemia and in the experiment with M14 melanoma was greater than 100 µM in each case. Further, the TGI in the experiment with MDA-MB-231 breast, with EKVX NSCLC and in the experiment with CAKI-1 renal was greater than 100 µM throughout.
Take `O=C(c1ccc2ccccc2c1O)N1CCCCC1`: the TGI was greater than 100 µM with PC-3 prostate; greater than 100 µM in the experiment with UACC-62 melanoma; greater than 100 µM with SNB-75 CNS; 59.3 µM in the experiment with MOLT-4 leukemia; greater than 100 µM in the experiment on M14 melanoma; greater than 100 µM in the experiment with MDA-MB-231 breast. Moreover, the TGI with EKVX NSCLC and in the experiment with CAKI-1 renal was greater than 100 µM in each case.
Consider `NS(=O)(=O)c1ccc(NC(=O)c2ccc(NC3=C(Cl)C(=O)N(Cc4ccccc4)C3=O)cc2)cc1`, for which the GI50 is 12.8 µM with PC-3 prostate; 1.89 µM in the experiment on OVCAR-3 ovarian; 12 µM in the experiment with M14 melanoma; 2.65 µM with MDA-MB-231 breast; 61.9 µM in the experiment on EKVX NSCLC; 14.8 µM in the experiment on CAKI-1 renal. Besides, the GI50 in the experiment on MALME-3M melanoma was 49.4 µM. For the same molecule, the TGI was 34 µM in the experiment with PC-3 prostate; 7.88 µM in the experiment on OVCAR-3 ovarian; 34.6 µM with M14 melanoma; 8.11 µM in the experiment with MDA-MB-231 breast; greater than 100 µM with EKVX NSCLC; 29.3 µM in the experiment on CAKI-1 renal. In the experiment with MALME-3M melanoma, this molecule displayed a TGI greater than 100 µM.
Consider `O=C(Nc1ccc(Cl)cc1Cl)c1ccc(NC2=C(Cl)C(=O)N(Cc3ccccc3)C2=O)cc1`, for which the GI50 is 13.4 µM with PC-3 prostate; 18.6 µM in the experiment with UACC-62 melanoma; 16.3 µM with OVCAR-3 ovarian; 3.57 µM with MOLT-4 leukemia; 64.6 µM in the experiment with M14 melanoma; 17.4 µM in the experiment with MDA-MB-231 breast. For the same molecule, the GI50 was 21.7 µM in the experiment with EKVX NSCLC and 26.4 µM with CAKI-1 renal. Also, the TGI was 26.2 µM in the experiment with PC-3 prostate; 35.3 µM in the experiment on UACC-62 melanoma; 33.5 µM with OVCAR-3 ovarian; 11.3 µM in the experiment with MOLT-4 leukemia; greater than 100 µM in the experiment on M14 melanoma; 31.2 µM with MDA-MB-231 breast. The TGI stood at 46.1 µM in the experiment on EKVX NSCLC and 63.5 µM in the experiment on CAKI-1 renal.
For the molecule `CN1C(=O)c2c(ccc3c2OCO3)C2C(O)Cc3cc4c(cc3C21)OCO4` (configuration not stated), the TGI in the experiment with PC-3 prostate was greater than 100 µM; in the experiment with UACC-62 melanoma it was greater than 100 µM; in the experiment on OVCAR-3 ovarian, greater than 100 µM; in the experiment with SNB-75 CNS it was 5.13 µM; with MOLT-4 leukemia, 20 µM; in the experiment on M14 melanoma, greater than 100 µM. The TGI with MDA-MB-231 breast was 18.3 µM; with EKVX NSCLC, 60.9 µM; in the experiment on CAKI-1 renal, 81.7 µM.
Regarding `COc1cc2c(/C=N\N=C(N)N)c(Cl)[nH]c2cc1C`, the GI50 was 6.54 µM with PC-3 prostate; 12 µM with UACC-62 melanoma; 5.49 µM in the experiment with OVCAR-3 ovarian; 2.82 µM with MOLT-4 leukemia; 12.5 µM with M14 melanoma; 6.4 µM with MDA-MB-231 breast. For the same molecule, the GI50 with EKVX NSCLC was 16.9 µM; in the experiment with CAKI-1 renal, 17 µM. In addition, the TGI in the experiment with PC-3 prostate is 19.5 µM; with UACC-62 melanoma, 24.6 µM; with OVCAR-3 ovarian, 20.6 µM; in the experiment with MOLT-4 leukemia, 7.41 µM; in the experiment with M14 melanoma, 25.2 µM; in the experiment with MDA-MB-231 breast it was 20.8 µM. Moreover, the results for the TGI in the experiment with EKVX NSCLC and in the experiment on CAKI-1 renal were 34.5 µM and 32.7 µM, respectively.
As to `O=C(/C=C/c1ccc(B(O)O)cc1)/C=C/c1ccc(B(O)O)cc1`, the GI50 with PC-3 prostate was 3.31 µM; with UACC-62 melanoma, 1.73 µM; with OVCAR-3 ovarian, 3.11 µM; in the experiment with SNB-75 CNS, 3.48 µM; in the experiment on MOLT-4 leukemia, 3.59 µM; in the experiment on M14 melanoma it was 2.23 µM. Moreover, the GI50 in the experiment with MDA-MB-231 breast was 3.08 µM; in the experiment on CAKI-1 renal, 6.22 µM; in the experiment on MALME-3M melanoma, 6.3 µM. In addition, the TGI with PC-3 prostate turned out to be 14.3 µM; in the experiment with UACC-62 melanoma it was 4.41 µM; in the experiment on OVCAR-3 ovarian it was 9.27 µM; in the experiment on SNB-75 CNS it was 14.9 µM; with MOLT-4 leukemia, 66.3 µM; in the experiment with M14 melanoma, 5.9 µM. Further, the TGI is 10.8 µM with MDA-MB-231 breast, 19.2 µM with CAKI-1 renal and 20.9 µM in the experiment with MALME-3M melanoma.
Turning to `CC(C)(C)OC(=O)NCCNC1=CC(=O)c2nc3ccccc3c3ccnc1c23`, the GI50 in the experiment on PC-3 prostate is 15.1 µM; with UACC-62 melanoma, 19.6 µM; with OVCAR-3 ovarian, 13.8 µM; with SNB-75 CNS it was 17.8 µM; in the experiment with M14 melanoma, 18.5 µM; in the experiment on MDA-MB-231 breast, 18.4 µM. Also, the GI50 in the experiment with EKVX NSCLC is 41.4 µM; in the experiment on CAKI-1 renal it was 28.4 µM; with MALME-3M melanoma, 32 µM. Moreover, the TGI was 49.2 µM in the experiment on PC-3 prostate; 43.2 µM in the experiment with UACC-62 melanoma; 67 µM in the experiment on OVCAR-3 ovarian; 42.6 µM in the experiment with SNB-75 CNS; 61.1 µM with M14 melanoma; 58.6 µM in the experiment on MDA-MB-231 breast. For the same molecule, the TGI in the experiment with EKVX NSCLC was greater than 100 µM; in the experiment with CAKI-1 renal, 72.3 µM; in the experiment with MALME-3M melanoma, 81.8 µM.
As for `O=S(=O)(Nc1ncccn1)c1ccc(N=Nc2ccc(O)c3ncccc23)cc1`, the GI50 was 15.6 µM in the experiment with PC-3 prostate; 3.4 µM in the experiment with UACC-62 melanoma; 6.25 µM in the experiment with OVCAR-3 ovarian; 2.01 µM in the experiment on SNB-75 CNS; 5.68 µM with MOLT-4 leukemia; 8.59 µM with M14 melanoma. The GI50 was 15.9 µM with MDA-MB-231 breast and 3.82 µM with CAKI-1 renal. Also, the TGI in the experiment with PC-3 prostate was greater than 100 µM; in the experiment on UACC-62 melanoma it was 14 µM; with OVCAR-3 ovarian it was 59.4 µM; with SNB-75 CNS it was 11 µM; in the experiment on MOLT-4 leukemia it was 51.2 µM; in the experiment with M14 melanoma, 26.6 µM. Moreover, the TGI in the experiment on MDA-MB-231 breast was 97.1 µM; in the experiment on CAKI-1 renal, 21 µM.

The record behind these values is PubChem BioAssay (NCI).
